Tests used:
MDA-MB-468 cells = assay: Sulforhodamine B antiproliferative assay, MDA-MB-468; format: cell-based, human
Description: (§1) The antiproliferative effect of the isolated compounds (1–11) was investigated by the sulforhodamine B assay against human triple-negative breast cancer cell lines (MDA-MB-468 and MDA-MB-231) and breast ductal carcinoma cells (MCF-7) and the non-tumorigenic fibroblast (HFF-1) and breast cell lines (MCF12A). The IC50 values were determined after 48 h of treatment (Table 1).
(§2) Human breast adenocarcinoma MDA-MB-231, MDA-MB-468, and MCF-7 cell lines and non-tumorigenic foreskin fibroblast (HFF-1) and breast (MCF12A) cell lines were purchased from American Type Culture Collection (ATCC, Rockville, MD, USA). All cancer cell lines, except MCF12A, were routinely cultured in RPMI-1640 medium with glutamine from Corning (VWR, Carnaxide, Portugal) supplemented with 10% fetal bovine serum (FBS) from Biowest (Labclinics, Barcelona, Spain). MCF12A cells were cultured in a 1:1 mixture of Dulbecco’s modified Eagle’s medium and Ham’s F12 medium, 20 ng/mL human epidermal growth factor, 100 ng/mL cholera toxin, 0.01 mg/mL bovine insulin, and 500 ng/mL hydrocortisone and supplemented with 10% FBS. All cells were maintained in a humidified incubator at 37 °C with 5% CO2. All cells were routinely tested for mycoplasma contamination using the MycoAlertTM PLUS detection kit (Lonza, Basel, Switzerland).
(§3) Human cell lines were seeded in 96-well plates at a density of 5.0 × 10^3 (MDA-MB-231, MCF-7, HFF-1, and MCF12A) and 7.5 × 10^3 (MDA-MB-468) cells/well and allowed to adhere for 24 h. Cells were treated with serial dilutions of compounds (ranging from 0.1 to 40 μM) for an additional 48 h. Effect on cell proliferation was measured by sulforhodamine B assay, as described in [33], and the half-maximal inhibitory concentration (IC50) was then determined for each cell line using the GraphPad Prism software version 7.0 (La Jolla, CA, USA).

MCF-7 cells = assay: Sulforhodamine B antiproliferative assay, MCF-7; format: cell-based, human
Description: as §1, §2, §3

**Q.** Which IC50 (MDA-MB-468 cells; Homo sapiens, MDA-MB-468, 48 h, sulforhodamine B assay, 48 h of treatment) does the source give for COc1cc2c(cc1O)C(=O)OC1[C@@H](O)C=C3CCN(C)C3[C@]21O (stereo partly drawn) [Compound 7, 2α-10bα-dihydroxy-9-O-demethylhomolycorine] here?
**A.** The IC50 was 16.3 ± 1.3 µM.

**Q.** And the “SI E/B” value (MDA-MB-468 cells; selectivity index, HFF-1 vs MDA-MB-468)?
**A.** Its value is 0.81.

**Q.** What about the “SI D/B” value (MDA-MB-468 cells; selectivity index, MCF12A vs MDA-MB-468) of the same compound?
**A.** The value was 0.34.

**Q.** What about the IC50 (MCF-7 cells; Homo sapiens, MCF7, 48 h, sulforhodamine B assay, 48 h of treatment, read-out: IC50 MCF-7 (C)) of the same compound?
**A.** The IC50 was 6.8 ± 0.2 µM.

**Q.** And the “SI D/C” value (MCF-7 cells; selectivity index, MCF12A vs MCF-7)?
**A.** The value was 0.82.

From paper PMC9501014, “Amaryllidaceae-Type Alkaloids from Pancratium maritimum: Apoptosis-Inducing Effect and Cell Cycle Arrest on Triple-Negative Breast Cancer Cells” (Molecules, 2022)
